Measured values published in US11155841B2, “Method for producing sphingoid base or sphingolipid” (AJINOMOTO CO., INC., priority 2015, dated 2021).

Experiment: Phytosphingosine solubility with various cyclodextrins in aqueous solution
Format: physicochemical
Settings: aqueous 2-hydroxypropyl-α-cyclodextrin solution, aqueous with cosolvent or surfactant or cyclodextrin, thermodynamic from solid; excess of pure phytosphingosine (20 g/l) incubated with 2-hydroxypropyl-α-cyclodextrin solution; quantified by LC-MS; read-out: Solubilized phytosphingosine in the supernatants
Procedure: Phytosphingosine amounts (mg/l) measured in supernatants after incubation of an excess of pure phytosphingosine (20 g/l) with each of the three types of cyclodextrin at various concentrations.
These experiments were conducted to determine if and to what extent cyclodextrins solubilized sphingoid bases. To that end, an excess of phytosphingosine was incubated with increasing concentrations of solutions of three different types of cyclodextrin species—α-cyclodextrin, 2-hydroxypropyl-α-cyclodextrin, 2-hydroxypropyl-β-cyclodextrin. Solubilized phytosphingosine in the supernatants were quantified by liquid chromatography-mass spectrometry (LC-MS) using standards prepared in the same cyclodextrin solutions.

solubility: > 9000 µg/mL
SMILES: CCCCCCCCCCCCCC[C@@H](O)[C@@H](O)[C@@H](N)CO [phytosphingosine]
